Assay results: patent US20100016547A1, “Glycosilated Peptide and Medicine Comprising It as an Effective Ingredient” (priority 2005, published 2010)

How the values were obtained:
[1] = target: T1, GLP-1 receptor (Homo sapiens, UniProt P43220)
Experimental: After being incubated at room temperature for 2 hours, the solution was filtered through a unifilter 96GF/C plate (Perkin-Elmer) pretreated with 1% polyethylenimine containing 0.5% BSA, washed with 25 mM HEPES buffer solution (pH 7.4) containing 0.5% BSA, and radioactivity remained on the filter was measured by a gamma counter (Top Counter; Perkin-Elmer).

[2] = target: T1, GLP-1 receptor; assay: Assay for production of cAMP
Experimental: Assay for Production of cAMP
After stirring at room temperature for an hour, the cells were lysed with Triton X-100 (final concentration: 1%).
Quantity of cAMP was determined using cAMP Femtomolar Kit (CIS Bio International). The reaction solution (1 μL) was moved to a new 384-well plate and diluted by adding 9 μL of dilution buffer. Next, each 5 μL of cAMP-XL665 solution and anti-cAMP cryptate solution of the Kit was added, the mixture was incubated at room temperature for an hour, and time-resolved fluorescence was measured using RUBYstar (BMG LABTECH).

T1 sequence (P43220 24-463, species assumed): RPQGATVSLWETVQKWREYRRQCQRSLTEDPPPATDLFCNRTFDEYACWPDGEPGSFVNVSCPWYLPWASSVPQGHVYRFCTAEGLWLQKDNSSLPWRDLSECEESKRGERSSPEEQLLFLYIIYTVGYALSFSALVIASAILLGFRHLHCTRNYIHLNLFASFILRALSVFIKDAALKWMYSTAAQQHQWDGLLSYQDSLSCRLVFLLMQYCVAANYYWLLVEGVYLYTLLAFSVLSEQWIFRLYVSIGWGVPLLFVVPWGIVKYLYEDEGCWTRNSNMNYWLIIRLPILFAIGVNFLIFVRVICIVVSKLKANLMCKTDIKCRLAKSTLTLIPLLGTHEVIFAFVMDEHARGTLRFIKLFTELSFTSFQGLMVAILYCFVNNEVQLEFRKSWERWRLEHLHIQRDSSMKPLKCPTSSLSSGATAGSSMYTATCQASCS

Compound `CC[C@H](C)[C@H](NC(=O)[C@H](Cc1ccccc1)NC(=O)[C@H](CCC(=O)O)NC(=O)[C@H](CC(=O)N[C@@H]1O[C@H](CO)[C@@H](O[C@@H]2O[C@H](CO)[C@@H](O[C@@H]3O[C@H](CO[C@H]4O[C@H](CO)[C@@H](O)[C@H](O)[C@@H]4O[C@@H]4O[C@H](CO)[C@@H](O[C@@H]5O[C@H](CO[C@]6(C(=O)O)C[C@H](O)[C@@H](NC(C)=O)[C@H]([C@H](O)[C@H](O)CO)O6)[C@H](O)[C@H](O)[C@H]5O)[C@H](O)[C@H]4NC(C)=O)[C@@H](O)[C@H](O[C@H]4O[C@H](CO)[C@@H](O)[C@H](O)[C@@H]4O[C@@H]4O[C@H](CO)[C@@H](O[C@@H]5O[C@H](CO[C@]6(C(=O)O)C[C@H](O)[C@@H](NC(C)=O)[C@H]([C@H](O)[C@H](O)CO)O6)[C@H](O)[C@H](O)[C@H]5O)[C@H](O)[C@H]4NC(C)=O)[C@@H]3O)[C@H](O)[C@H]2NC(C)=O)[C@H](O)[C@H]1NC(C)=O)NC(=O)[C@H](C)NC(=O)[C@H](C)NC(=O)[C@H](CCC(N)=O)NC(=O)CNC(=O)[C@H](CCC(=O)O)NC(=O)[C@H](CC(C)C)NC(=O)[C@H](Cc1ccc(O)cc1)NC(=O)[C@H](CO)NC(=O)[C@H](CO)NC(=O)[C@@H](NC(=O)[C@H](CC(=O)O)NC(=O)[C@H](CO)NC(=O)[C@@H](NC(=O)[C@H](Cc1ccccc1)NC(=O)[C@@H](NC(=O)CNC(=O)[C@H](CCC(=O)O)NC(=O)[C@H](C)NC(=O)[C@@H](N)Cc1c[nH]cn1)[C@@H](C)O)[C@@H](C)O)C(C)C)C(=O)N[C@@H](C)C(=O)N[C@@H](Cc1c[nH]c2ccccc12)C(=O)N[C@@H](CC(C)C)C(=O)N[C@H](C(=O)N[C@@H](CCCCN)C(=O)NCC(=O)N[C@@H](CCCNC(=N)N)C(N)=O)C(C)C` [GL26NE1] has an IC50 [1] of 11 nM and an EC50 [2] of 0.8 nM.
